# Measurements: paper PMC9435431, “Novel chemical entities inhibiting Mycobacterium tuberculosis growth identified by phenotypic high-throughput screening” (Scientific Reports, 2022)
# Experiments:
# [1] = test system: M. tuberculosis MmpL3 F255L mutant strain; type: cell-based, Mycobacterium tuberculosis
# [2] = test system: M. tuberculosis QcrB A396T mutant strain; type: cell-based, Mycobacterium tuberculosis
# M. tuberculosis = type: cell-based
# [3] = test system: M. tuberculosis MmpL3 G253E mutant strain; type: cell-based, Mycobacterium tuberculosis
# [4] = test system: M. tuberculosis MmpL3 Y252C mutant strain; type: cell-based, Mycobacterium tuberculosis
# [5] = test system: M. tuberculosis MmpL3 Y252S mutant strain; type: cell-based, Mycobacterium tuberculosis
smiles,measurement,setting,value
O=C(Nc1nc2ccccc2s1)NC1C2CC3CC(C2)CC1C3 (stereo not shown) [HBU-1],Fold change,[1],1.4
same,IC90,[1],6 µM
Cc1cc(C)n(-c2nc(N)cc(-c3cccc(F)c3)n2)n1 [PZP-2],Fold change,[1],> 13
same,IC90,[1],> 100 µM
CC(=O)n1nccc1-c1sc(-c2cccs2)nc1C [TPT],Fold-change,[2],8.9
same,IC90,[2],63 µM
same,activity against the QcrB mutant strain (in words),[2],≥ threefold lower activity
"O=C(O)C(F)(F)F.c1cc(C2CCN(CC3CCCCC3)CC2)ccn1 [Molecule 4PP-32, 4-[1-(Cyclohexylmethyl)-4-piperidyl]pyridine, 2,2,2-trifluoroacetic acid salt]",frequency of resistance,M. tuberculosis,7.35 × 10^−8
CC1C(CNC(=O)Nc2ccccc2)CC2CC1C2(C)C (stereo not shown) [HBU-2],Fold change,[1],8.0
same,IC90,[1],39 µM
CC(=O)c1ccc(NC(=O)NC(C)C23CC4CC(CC(C4)C2)C3)cc1 (stereo not shown) [HBU-3],Fold change,[1],2.4
same,IC90,[1],71 µM
CC(NC(=O)Nc1nc(-c2ccc(Cl)cc2)cs1)C1CC2C=CC1C2 (stereo not shown) [HBU-5],Fold change,[1],0.5
same,IC90,[1],6.9 µM
Cc1nc(-c2ccccn2)nc(NCCNc2ccc(C(F)(F)F)cn2)c1Cl [APDP-2],Fold change,[1],0.5
same,IC90,[1],15 µM
"O=C(O)C(F)(F)F.c1ccc2c(C3CCN(CC4CCCCC4)CC3)cccc2c1 [Molecule 4PP-31, 1-(Cyclohexylmethyl)-4-(1-naphthyl)piperidine; 2,2,2-trifluoroacetic acid]",Fold change,[1],15
same,IC90,[1],45 µM
Cc1ccc(-c2nnc(C)c(N3CCCC3)n2)cc1 [PYT],Fold-change,[2],5.8
same,IC90,[2],62 µM
same,activity against the QcrB mutant strain (in words),[2],≥ threefold lower activity
"CCC1(N2CCC(c3ccccc3)CC2)CCCCC1 [Molecule 4PP-1, 1-(1-Ethyl-cyclohexyl)-4-phenyl-piperidine]",MmpL3 G253E MIC,[3],91 µM
same,MmpL3 Y252C MIC,[4],30 µM
same,Fold change,[1],11
same,IC90,[1],68 µM
same,MmpL3 F255L MIC,[1],68 µM
same,MmpL3 Y252S MIC,[5],93 µM
"O=C(NCCc1cccc(Br)c1)C1(c2ccc(F)cc2)CCC1 [PCB-19, N-(3-bromophenethyl)-1-(4-fluorophenyl)cyclobutane-1-carboxamide]",MmpL3 G253E MIC,[3],20 µM
same,MmpL3 Y252C MIC,[4],45 µM
same,MmpL3 F255L MIC,[1],3 µM
same,MmpL3 Y252S MIC,[5],35 µM
same,frequency of resistance,M. tuberculosis,7.0 × 10^−8
COc1ccc(-c2cc(N)nc(-n3nc(C)cc3C)n2)cc1 [PZP-1],Fold change,[1],> 19
same,IC90,[1],> 100 µM
"O=C(NCCc1cccc(Br)c1)C1(c2cccc(Cl)c2)CCC1 [PCB-16, N-(3-bromophenethyl)-1-(3-chlorophenyl)cyclobutane-1-carboxamide]",MmpL3 G253E MIC,[3],75 µM
same,MmpL3 Y252C MIC,[4],43 µM
same,MmpL3 F255L MIC,[1],8.0 µM
same,MmpL3 Y252S MIC,[5],50 µM
"CC(C)(C)CC(C)(C)N1CCC(c2ccccc2)CC1 [Molecule 4PP-44, 4-Phenyl-1-(1,1,3,3-tetramethyl-butyl)-piperidine]",Fold change,[1],3.5
same,IC90,[1],18 µM
Cc1cc(NC2CCCCC2)nc(-n2nc(C)cc2C)n1 [PZP-3],Fold change,[1],10
same,IC90,[1],46 µM
CNc1cc(-c2ccccn2)nc(-c2ccccn2)n1 [APDP-1],Fold change,[1],0.9
same,IC90,[1],9.2 µM
"O=C(NCCc1cccc(Br)c1)C1(c2ccccc2Cl)CCC1 [PCB-17, N-(3-bromophenethyl)-1-(2-chlorophenyl)cyclobutane-1-carboxamide]",MmpL3 G253E MIC,[3],28 µM
same,MmpL3 Y252C MIC,[4],94 µM
same,MmpL3 F255L MIC,[1],9.0 µM
same,MmpL3 Y252S MIC,[5],87 µM
O=C(NCCc1ccc(Br)cc1)NC12CC3CC(CC(C3)C1)C2 [HBU-4],Fold change,[1],> 8.3
same,IC90,[1],> 100 µM
"Cc1ccccc1C1(C(=O)NCCc2cccc(Br)c2)CCC1 [PCB-23, N-(3-bromophenethyl)-1-(o-tolyl)cyclobutane-1-carboxamide]",MmpL3 G253E MIC,[3],27 µM
same,MmpL3 Y252C MIC,[4],83 µM
same,MmpL3 F255L MIC,[1],8.0 µM
same,MmpL3 Y252S MIC,[5],82 µM
"O=C(NCCc1cccc(Br)c1)C1(c2ccccc2Br)CCC1 [PCB-21, N-(3-bromophenethyl)-1-(2-bromophenyl)cyclobutane-1-carboxamide]",MmpL3 G253E MIC,[3],41 µM
same,MmpL3 Y252C MIC,[4],96 µM
same,MmpL3 F255L MIC,[1],22 µM
same,MmpL3 Y252S MIC,[5],> 100 µM
same,frequency of resistance,M. tuberculosis,5.26 × 10^−8
Cc1nc(-c2ccccn2)nc(NCc2ccccc2)c1Cl [APDP-3],Fold change,[1],3.5
same,IC90,[1],22 µM
